Molecules are shown by their SMILES. A value given as a limit tells only on which side of the number the result lay.

What is called melting point is the temperature, or range, at which the solid turns liquid. For `COc1cc(OC)nc(Oc2cccc3c2C(=O)OC3Oc2ccccc2)n1` (configuration not stated), the melting point was in the range of 155 to 157 °C. In turn, `C=CCOc1cc(N)c([N+](=O)[O-])cc1I` gave a melting point of 74 °C. The compound `CCc1c(CCC(=O)OC)ccc2c1OCO2` yielded a melting point of 44 to 46 °C. `COc1ccc(S(=O)(=O)N2C(=O)C(O[Si](C)(C)C)(c3ccccc3Cl)c3cc(Cl)c(OC)cc32)c(OC)c1` (configuration not stated) showed a melting point of 217 to 219 °C. In the case of `Cn1cc(-c2cc3cccnc3[nH]2)c2cc(C(=O)NCCN3CCOCC3)ccc21`, the melting point fell in the range of 268 to 270 °C. Compound `CC1Cc2cc(C#N)ccc2C1=O` (configuration not stated) displayed a melting point of 90 to 91 °C. As for `O=c1c(Br)c(OCc2ccccc2)ccn1Cc1cccc(C(F)(F)F)c1`, the figure is 182 °C. Compound `O=C1C(=C2CC=Cc3ccccc32)CCCC1=C1CC=Cc2ccccc21` showed a melting point of 212 to 213 °C. Next, `CC/C(=C(\c1ccc(/C=C/C(=O)O)cc1)c1ccc(OC(=O)COC)cc1)c1ccccc1`: 190 to 191 °C; `CCCC1=C(C(=O)OCC)C(c2ccccc2Cl)c2cn(C(=O)Nc3ccccc3)nc2N1` (configuration not stated): 145 to 147 °C. In turn, `CC(=O)SCCC(=O)Oc1ccc([N+](=O)[O-])cc1` showed a melting point of 71 to 73 °C.

The compound `O=C(O)CCN1CCN(C2=Nc3ccccc3Cc3ccccc32)CC1` showed a melting point of 140 to 141 °C. Next, `O=C(N[C@@H](Cc1ccccc1)C(=O)N[C@@H](Cc1cncn1COCc1ccccc1)C(=O)O)C1CCCC1`: 195 to 197 °C. As for `CCc1c(Oc2ccc(C(F)(F)F)cc2[N+](=O)[O-])nn(C(=O)NC)c1C`, the figure is 81 to 82 °C; as for `COc1ccnc(C(=O)NCCNC(=O)OC(C)(C)C)c1`, 106 to 107 °C; as for `O[C@@H]1c2cc3c(cc2CC[C@H]1NCCc1ccccc1)CCO3` (relative stereo), 144 to 148 °C. In the case of `CCC(C(=O)C(C)C(O)C(C)CCc1ccc(C)c(O)c1C(=O)O)C1OC(CC)(C2CCC(O)(CC)C(C)O2)CC1C` (configuration not stated), the melting point was 250 °C. As for `CNS(=O)(=O)CCc1ccc(NN=CCCC#N)cc1`, the figure is 96 to 97 °C; as for `CCOC(=O)/C=C/c1ccc(-c2nc3c(=O)n(CC4CCCCC4)c(=O)n(CC4CCCCC4)c3[nH]2)cc1`, over 300 °C; as for `COc1ccc2c(c1)c1c3c(c(-c4ccccc4)cc1n2CCCCCCO)C(=O)NC3=O`, 170 to 173 °C.

With `COc1nc(N)nn1C`, the melting point is 177 to 180 °C. Next, `CC(C)(C)[S@@](=O)NC1(c2ccc3c(C(F)(F)F)c(O[C@H]4CC[C@H](C(C)(C)C)CC4)ccc3c2)COC1`: 86.8 to 90 °C. Next, `Cc1c(C)c(N2CCN(c3c(C)c(C)c4c(c3C)CC(C)(C)O4)CC2)c(C)c2c1OC(C)(C)C2`: 256 to 260 °C; `Cc1ccc(S(=O)(=O)OC2=COC2)cc1`: 86 to 88 °C. `FC(F)(F)Oc1ccc(C=Cc2nc[nH]n2)cc1` yielded a melting point of 125 to 127 °C. As for `CC(C)(C)OC(=O)N1CCC(c2nc3cc(-c4ccc(-n5cnnn5)cc4)ccc3o2)CC1`, the figure is 207 to 211 °C. In turn, `CC(C)On1c(C(C)C)nc2c(N)nc3ccccc3c21` yielded a melting point of 177 to 179 °C. The compound `C[C@@H](n1cnc2cc(-c3ccc(S(C)(=O)=O)cc3)sc2c1=O)[C@](O)(Cn1cncn1)c1ccc(F)cc1F` returned a melting point of 281 to 282 °C. On to `COCCCS(=O)(=O)NC(=O)CCc1cc(OCC2CC2)nn1Cc1ccc(C(F)(F)F)cc1Cl`, for which the melting point fell in the range of 152 to 154 °C. As to `O=Cc1cccc(-c2nc3sccn3c2-c2ccnc(N[C@@H]3CCCN(S(=O)(=O)c4ccc(Cl)cc4)C3)n2)c1`, the melting point fell in the range of 124 to 126 °C. Next, `N#Cc1ccc2c(c1)nc(N)n2CCC(=O)O`: over 320 °C. `O=C(Nc1cccnc1)N1CCc2cc(Cl)c(Cl)cc21` returned a melting point of 236 to 238 °C. Next, `COc1ccccc1OCC(O)CN1CCC2(CC1)CNC(=O)O2` (configuration not stated): 124 to 125 °C; `CC(C)C(NC(=O)OCc1cccnc1)C(=O)NC(Cc1ccccc1)C(O)C(Cc1ccccc1)NC(=O)C(NC(=O)OCc1cccnc1)C(C)C` (configuration not stated): 177 to 178 °C. As for `CNc1ccncc1N`, the figure is 163 to 165 °C. As for `CC(=O)OCC(=O)C1C(C)CC2C3CC(F)C4=CC(=O)C=CC4(C)C34OC4CC21C` (configuration not stated), the figure is 154 to 162 °C. `OC1(c2ccc(F)cc2)CCC2(CC1)OCCO2` gave a melting point of 133 to 135 °C.

Take `COC(=O)c1[nH]c(-c2ccccc2)c(N=Cc2ccccc2)c1C(=O)OC`: the melting point lay within 218 to 220 °C. `O=S(=O)(Nc1ccc2c(OCc3ccc(-c4ccccc4)cc3Cl)cccc2c1)C(F)(F)F` displayed a melting point of 131 to 134 °C. As for `Cc1c(Br)c(=O)c(C(=O)O)c(-c2ccccc2)n1C`, the figure is 252 to 253 °C; as for `COc1ccc(-c2c(Cl)c(CN3CCCC3=O)nc3sc4cnccc4c23)cc1OC`, 228 to 230 °C; as for `O=C(O)COc1ccc(OCCC(c2ccccc2)(c2ccccc2)c2ccccc2)cc1`, 66 to 68 °C. `c1ccc(COc2ccc(OCC3CC3)cc2)cc1`: the melting point was 96 °C. With `Cc1cc(N)c(C)nc1OC(F)F`, the melting point lay within 38.4 to 39.4 °C.

In turn, `CN1CCN(Cc2ccc(C(=O)Nc3cccc(Nc4ncc(C#N)c(-c5cccs5)n4)c3)cc2)CC1` showed a melting point of 208 to 209 °C. The compound `CSc1ccc2c(c1)Cc1ccc(CO)cc1O2` gave a melting point of 151 to 153 °C. As for `C[C@H](NC(=O)OC(C)(C)C)C(=O)N[C@H](CCC(=O)O)C(N)=O`, the figure is 98 °C; as for `COC(=O)C1(C)CC(C(=O)Nc2ccc(Cl)cc2)=NN1c1ccc(Cl)cc1` (configuration not stated), 138 to 140 °C. Next, `CS(=O)(=O)Nc1cccc(C(=O)NCCN2CCC(Oc3ccc(Cl)c(Cl)c3)CC2)c1`: 150 to 151 °C. Next, `Cc1ccc(C(=O)Nc2c[nH]nc2C(=O)NCC(F)(F)F)cn1`: 218 to 219 °C.

`CN1C2CCC(N3C(=O)c4ccccc4C3=O)C1CC2` (configuration not stated): the melting point was 145 to 147 °C. As for `O=C(c1ccc(F)c(F)c1)N1CCCC(c2noc(-c3ccc[nH]3)n2)C1` (configuration not stated), the figure is 168 °C; as for `COc1ccc(C(C#Cc2ccccc2)Cc2ncc(C)o2)cc1OC1CCCC1` (racemic), 103 to 104 °C; as for `CC(C)(C)OC(=O)Nc1cc(-c2nnc(CCc3cccc(F)c3)o2)ccn1`, 256 to 257 °C. As for `CC(=O)OCCOCn1ccc2c(Cl)ncnc21`, the figure is 67 to 88 °C. For the compound `CCc1nn2c(c1Oc1cc(Cl)cc(Cl)c1)CN(Cc1ccc(C#N)cc1)CC2`, the melting point lay in the range of 149 to 150 °C. Compound `Cc1ccccc1-c1c(C#N)nn(-c2c(Cl)cc(C(F)(F)F)cc2Cl)c1N` had a melting point of 199 to 202 °C. As for `Clc1ccc2snc(-c3ccc(C4=NCCN4)cc3)c2c1`, the figure is 195 °C.

As for `CNc1nc(Cl)c(SC)c(N2CCN(c3ccccc3)CC2)n1`, the melting point lay in the range of 163 to 164 °C. In the case of `CN(C)c1ncc(-c2cccc(-n3cnc4cc(-c5ccoc5)ccc43)c2)cn1`, the melting point lay in the range of 183 to 184 °C. Regarding `CC1(C)CNc2cc3[nH]c(-c4cccnc4)nc3cc21`, the melting point lay within 213 to 215 °C. As for `CN(C)C1(c2ccccc2)CCC(NC(=S)NCCCc2ccccc2)CC1` (configuration not stated), the figure is 75 to 80 °C. In the case of `CC(=O)Oc1cccc(C(=O)c2ccccc2)c1OC(C)=O`, the melting point fell in the range of 81 to 83 °C. Next, `COCCNc1sc(-c2cc[nH]n2)c2c1C(=O)CC(C)(C)C2`: 171 to 173 °C; `CC(C)c1nn(-c2ccc(C(F)(F)F)cn2)cc1CCCCO`: 67 to 68 °C. As for `COc1cc(Cl)nc(Oc2cccc(Oc3nc(OC)cc(OC)n3)c2C(=O)O)n1`, the figure is 150 to 152 °C; as for `CN(C)c1ncnc2c1ncn2Cc1c(F)cccc1Cl`, 134 to 135 °C; as for `NCc1ccc2c(c1)ncn2-c1cccc(-c2ccc(F)nc2)c1`, 141 to 143 °C. With `CC(=O)NCc1ccc2ccn(C3CCN(CCc4ccc(Br)cc4)CC3)c2c1`, the melting point lay within 140 to 141 °C. Next, `CCOC(=O)c1csc(NC(=O)c2cc(C(C)(C)C)c(O)c(C(C)(C)C)c2)n1`: 233 to 235 °C; `O=C(Nc1ncco1)c1cnc2c(C(F)(F)F)cccc2c1O`: 304 °C. As for `O=[N+]([O-])c1cc(O)c(O)c([N+](=O)[O-])c1`, the figure is 168 to 170 °C; as for `COc1ccc(-c2cc(=S)n(Cc3ccncc3)nc2-c2ccc(OC)cc2)cc1`, 160 °C; as for `CC1(C)Oc2ccccc2-n2c(CN3CCOCC3)ccc21`, 150 to 151 °C. As for `CCOC(=O)[C@H](Cc1ccc(O)cc1)NC(=O)C(C)(C)NC(=O)[C@@H](SC(C)=O)C(C)C`, the figure is 137 to 138 °C; as for `Cc1ccc(Sc2ccccc2C(=O)O)c([N+](=O)[O-])c1`, 189 to 191 °C; as for `CN(C(=O)CNc1cc(-c2ccccc2)nc(-c2ccc(C(F)(F)F)cc2)n1)C1CC1`, 179 to 180 °C. `COc1cc2c(cc1OC)C(=O)C(=NO)C2` gave a melting point of 240 °C.

In the case of `CCCCC(=O)Nc1ccc(Cl)cc1C(=O)OC`, the melting point was in the range of 48 to 49 °C. Next, `Cc1sc(CO)c(C)c1Br`: 85 to 90 °C; `C=C(CCCC(=O)N1CCC[C@@H](C(=O)OC(C)(C)C)N1)C(=O)OCC`: 63 to 65 °C; `CCOC(=O)Nc1c(C)cc(Cc2cnc(N)nc2N)cc1C`: 192 to 193 °C. On to `CC(C)(C)OC(=O)CCc1ccnc(-c2nc(=O)c3ccc(Br)cc3s2)c1`, for which the melting point lay within 173 to 174 °C. Compound `CC(Oc1ccc(C#N)cc1)c1ccnc2ncnn12` (configuration not stated) gave a melting point of 163 to 164 °C. Next, `CCOc1nc(Cl)ncc1F`: 30 to 32 °C; `CC1(O)CC(=O)OC(c2ccc(-c3ccccc3)cc2)C1Br` (configuration not stated): 173 to 176 °C; `CCCCN1CCC(CNC(=O)c2ccc(N)n3cc(-c4ccccc4)nc23)CC1`: 221 °C.

The record behind these values is a melting point compilation (Tetko et al.; mined from patent text by program, amines drawn as free bases though some values may be those of a salt).
